Among the test systems are 786-0 renal; A498 renal; A549 NSCLC; ACHN renal; BT-549 breast; HT29 colon; M14 melanoma; MDA-N; MOLT-4 leukemia; NCI-H226 lung; NCI-H522 lung; SK-MEL-28 melanoma; SNB-75 CNS; SW-620 colon; U251 CNS.
Common to all, as to assay: DTP human tumour cell line panel, 48 h

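Cultured in 96-well plates, cells were exposed to test compound for 48 hours across five concentrations. TGI marks complete inhibition of growth.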

As to `CN(C)CCCN1C(=S)N(CCCN(C)C)c2c3ccccc3nc3c([N+](=O)[O-])ccc1c23`, the TGI is 18.2 µM with 786-0 renal; 22.9 µM in the experiment with A498 renal; above 42.2 µM in the experiment with A549 NSCLC; 16.1 µM in the experiment with ACHN renal; 36.4 µM in the experiment with BT-549 breast; 12 µM with HT29 colon. Further, the TGI in the experiment with M14 melanoma was 26.8 µM; with MDA-N, 21.4 µM; with MOLT-4 leukemia it was above 100 µM; with NCI-H226 lung, 24.1 µM; in the experiment with NCI-H522 lung it was 10.5 µM; with SK-MEL-28 melanoma, 29.9 µM. Moreover, the total growth inhibition concentration (TGI) in the experiment with SNB-75 CNS came to 23.1 µM; in the experiment on SW-620 colon it was 17.4 µM; with U251 CNS it was 20.7 µM.

With `CCOC(=O)c1c[nH]c2c(Sc3ccccc3)nccc2c1=O`, the TGI with 786-0 renal, in the experiment with A498 renal, in the experiment on A549 NSCLC, in the experiment with ACHN renal, with BT-549 breast and in the experiment with HT29 colon was above 100 µM each time. Also, the TGI in the experiment on M14 melanoma was above 100 µM; in the experiment on MDA-N it was above 100 µM; in the experiment on MOLT-4 leukemia, above 100 µM; with NCI-H226 lung, above 100 µM; in the experiment on NCI-H522 lung, 74 µM; in the experiment with SK-MEL-28 melanoma, above 100 µM. Moreover, the TGI with SNB-75 CNS, in the experiment on SW-620 colon and with U251 CNS was above 100 µM in each case.

Consider `S=c1[nH]nc(CNc2ccc(-c3n[nH]c(=S)n3-c3ccc(Cl)cc3)cc2)n1-c1ccc(Cl)cc1`, for which the TGI with 786-0 renal was 70 µM; in the experiment on A498 renal it was above 100 µM; in the experiment with A549 NSCLC it was above 100 µM; in the experiment with ACHN renal, above 100 µM; in the experiment with BT-549 breast, above 100 µM; in the experiment on HT29 colon, 66.7 µM. In addition, the TGI is 68.1 µM in the experiment on M14 melanoma; 86.1 µM in the experiment on MDA-N; above 100 µM with MOLT-4 leukemia; above 100 µM in the experiment on NCI-H226 lung; 48.5 µM with NCI-H522 lung; 64.2 µM with SK-MEL-28 melanoma. Moreover, the TGI with SNB-75 CNS, in the experiment on SW-620 colon and in the experiment on U251 CNS was above 100 µM in each case.

As to `COc1cc(NS(C)(=O)=O)ccc1Nc1cc[nH]c2ccc3nccc3c12`, the TGI in the experiment on 786-0 renal was 27.7 µM; with A498 renal it was 30.7 µM; in the experiment on A549 NSCLC it was 34.9 µM; in the experiment on ACHN renal, 32.8 µM; with BT-549 breast, 28.7 µM; with HT29 colon it was 31.3 µM. Besides, the TGI with M14 melanoma is 32.2 µM; in the experiment with MDA-N, 30.8 µM; in the experiment with NCI-H226 lung it was 36.9 µM; in the experiment on NCI-H522 lung, 22.6 µM; in the experiment on SK-MEL-28 melanoma, 31.2 µM; with SW-620 colon it was 41 µM. Besides, in the experiment with U251 CNS, the TGI was 27.3 µM.

As to `O=C1C[C@H](c2ccccc2)O[C@@H](c2ccccc2)C1`, the TGI in the experiment on 786-0 renal, in the experiment with A549 NSCLC, in the experiment on BT-549 breast, in the experiment with HT29 colon, in the experiment with M14 melanoma and in the experiment on MDA-N was above 100 µM throughout. Moreover, the TGI with MOLT-4 leukemia, with NCI-H226 lung, in the experiment on SK-MEL-28 melanoma, with SNB-75 CNS, with SW-620 colon and with U251 CNS was above 100 µM each time.

`c1ccc([P+](CCSCCSCC[P+](c2ccccc2)(c2ccccc2)c2ccccc2)(c2ccccc2)c2ccccc2)cc1`: the TGI with 786-0 renal, in the experiment with A498 renal, in the experiment on A549 NSCLC, with ACHN renal, in the experiment with BT-549 breast and in the experiment with HT29 colon was above 100 µM throughout. Further, the TGI in the experiment with M14 melanoma, with MDA-N, in the experiment with MOLT-4 leukemia, in the experiment on NCI-H226 lung, in the experiment on SK-MEL-28 melanoma and in the experiment with SNB-75 CNS was above 100 µM in each case. The TGI with SW-620 colon and with U251 CNS was above 100 µM each time.

Take `CC(=O)C1=C(C)N2C(=NC3=C(CCc4ccccc43)C2c2ccc(F)cc2)S1` (stereo unspecified): the TGI in the experiment with 786-0 renal, in the experiment with A498 renal, in the experiment with A549 NSCLC, in the experiment with ACHN renal, in the experiment on BT-549 breast and with HT29 colon was above 100 µM each time. The TGI with M14 melanoma was above 100 µM; in the experiment with MDA-N, above 100 µM; with MOLT-4 leukemia, 6.54 µM; in the experiment with NCI-H226 lung it was above 100 µM; in the experiment with SK-MEL-28 melanoma, above 100 µM; in the experiment with SNB-75 CNS, above 100 µM. The TGI in the experiment with SW-620 colon and with U251 CNS was above 100 µM each time.

On to `CCCNC(=S)/N=C/c1c(O)cc(C)oc1=O`, for which the TGI with 786-0 renal, in the experiment with A549 NSCLC, in the experiment on ACHN renal, with BT-549 breast, in the experiment on HT29 colon and with M14 melanoma was above 100 µM in each case. The TGI in the experiment with MDA-N, in the experiment on MOLT-4 leukemia, with NCI-H226 lung, in the experiment on SK-MEL-28 melanoma, with SNB-75 CNS and with SW-620 colon was above 100 µM in each case. Also, the TGI with U251 CNS is above 100 µM.

The term TGI denotes the concentration at which net growth stops. A low value points to more potent growth arrest.

(Values after PubChem BioAssay (NCI).)
